The target of one data set is T1, PqsR (Pseudomonas aeruginosa, UniProt Q9I4X0).
T1 construct: expressed in transfected cells; host or cells: E. coli DH5α carrying plasmid pEAL08-2
The data set is described as follows: cell-based. The settings on record: read-out: Inhibition of PqsR stimulation induced by 50 nM PQS in the presence of test compd. (full inhibition = 1.00). Here is the method: The ability of the compounds to either stimulate or antagonize the PqsR-dependent transcription was analysed as previously described using a β-galactosidase reporter gene assay in E. coli expressing PqsR. Briefly, a culture of E. coli DH5α cells containing the plasmid pEAL08-2, which encodes PqsR under the control of the tac promoter and the β-galactosidase reporter gene lacZ controlled by the pqsA promoter, were co-incubated with test compound. Antagonistic effects of compounds were assayed in the presence of 50 nM PQS. After incubation, β-galactosidase activity was measured spectralphotometrically at OD420 nm using POLARstar Omega (BMG Labtech, Ortenberg, Germany) and expressed as percent stimulation of controls. For the determination of IC50 values, compounds were tested at least at eight different concentrations.

Data set [1] concerns P. aeruginosa PA14. The data set is described as follows: Pyocyanin assay. Type of data set: cell-based. The note with it: for Reduction of Pyocyanin: PA14. Here is the method:
For analysis of pyocyanin formation, cultivation procedure was the same as for HHQ determination with the exception of using PPGAS medium. Pyocyanin produced by PA14 was quantified using the method of Essar et al. with some modifications, as described in detail by Klein et al.. Briefly, 900 μL of each culture were extracted with 900 μL of chloroform and 800 μL of the organic phase re-extracted with 250 μL of 0.2 M HCl. OD520 was measured in the aqueous phase using FLUOstar Omega (BMG Labtech, Ortenberg, Germany). For each sample, cultivation and sample work-up were performed in triplicates. Inhibition values of pyocyanin formation were normalized to OD600.

Data set [2] concerns P. aeruginosa PA14. Kind of data set: Determination of extracellular PQS levels. Type of data set: cell-based. The note with it: compd. at 15 μM. On the procedure:
Quantification of PQS produced by P. aeruginosa PA14 was performed according to the method of Maurer et al.. For each sample, cultivation and sample work-up were performed in triplicates. Inhibition values of PQS formation were normalized to OD600.

Data set [3] relates to P. aeruginosa PA14. The data set is described as follows: Biofilm growth assay, PA14. Type of data set: cell-based. The note with it: added to 24 h old biofilms, final concentration 100 μM. Here is the method: Static biofilms at the bottom of 96 well microtiter plates were grown with small modifications as previously described. In brief, overnight P. aeruginosa LB cultures of PA14 were adjusted to an OD600 of 0.002 with fresh medium and transferred into a half-area 96 well μClear plate (Greiner Bio-One, 100 μL/well). The plate was covered with an air-permeable foil and incubated at 37° C. in a chamber with humid atmosphere. After 24 h, a staining solution including Syto9 and propidium iodide (LIVE/DEAD BacLight Bacterial Viability kit, Molecular Probes/Invitrogen) and the test compound solved in DMSO was added to the biofilms (final concentration 100 μM, 1% DMSO (v/v)) and biofilms were further incubated for 24 h at 37° C. After in total 48 h, biofilm stacks were acquired in the center of each well (step size: 3 μm) using an automated confocal microscope (TCS SP8, Leica Microsystems) equipped with an ×40/1.10 water objective. The acquired image stacks were processed and analyzed with a customized analysis solution for the Developer XD2 (Definiens) based on a previously described algorithm. 3D-projections of the biofilms are visualized with the software IMARIS (version 7.6.5, Bitplane).

A further data set deals with clinical isolate MHH9639. Kind of data set: Biofilm growth assay, clinical isolate MHH9639. The note with it: added to 24 h old biofilms, final concentration 100 μM. Type of data set: cell-based, P. aeruginosa.
For data set [4], the system named is P. aeruginosa PA14. The note with it: strain not given, cited from earlier work.
In data set [5] the test system is Pseudomonas aeruginosa. The note with it: cited from earlier work.
Data set [6] deals with Pseudomonas aeruginosa. The note with it: cited from earlier work. The source holds these as a separate data set.
Another data set deals with P. aeruginosa biofilm. The settings on record: background statement; cited from earlier work.
Data set [7] deals with P. aeruginosa PA14. The note with it: in cellulo; ref. [20]; strain not given; read-out: IC50, inhibition of virulence factor pyocyanin production; cited from earlier work.
The test system of data set [8] is P. aeruginosa infection. The note with it: cited from earlier work.
Data set [9] concerns P. aeruginosa infection. The note with it: cited from earlier work. This is another data set of the same source.

“Also recorded” adds a separate entry of the source. Like-named read-outs stand apart in the source and are kept apart here. Marks after values point to notes of the source that are not given here.

T1 sequence (Q9I4X0 whole entry): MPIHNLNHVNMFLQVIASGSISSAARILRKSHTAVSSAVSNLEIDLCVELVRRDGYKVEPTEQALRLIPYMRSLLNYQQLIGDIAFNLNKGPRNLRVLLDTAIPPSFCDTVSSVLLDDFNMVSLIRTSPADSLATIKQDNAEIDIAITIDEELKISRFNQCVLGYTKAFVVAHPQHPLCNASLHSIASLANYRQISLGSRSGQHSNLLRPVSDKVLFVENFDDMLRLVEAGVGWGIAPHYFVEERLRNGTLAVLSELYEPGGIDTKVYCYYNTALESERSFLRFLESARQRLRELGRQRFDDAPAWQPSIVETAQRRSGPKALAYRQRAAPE

What is called inhibition is the drop in the measured response relative to a control, in per cent. As for `CCCCCCCc1[nH]c2ccccc2c(=O)c1C(=O)OCC` [Compound 4], on PqsR, the inhibition at 0.05 µM was 18% and the inhibition at 5 µM turned out to be 32%.
Take `CCCCCCCc1[nH]c2ccc([N+](=O)[O-])cc2c(=O)c1C(=O)NO` [Compound 10, 2-heptyl-N-hydroxy-6-nitro-4-oxo-1,4-dihydroquinoline-3-carboxamide]: the “Reduction of Pyocyanin” value with P. aeruginosa PA14 [1] (determined at 12.5 μM) is recorded as 57^e %. On PqsR, the inhibition at 0.05 µM worked out at 30% and the inhibition at 5 µM turned out to be 78%.
Consider `CCOCCCCc1[nH]c2ccc([N+](=O)[O-])cc2c(=O)c1C(=O)OCC` [Compound 3], for which, at PqsR, the inhibition at 0.05 µM stood at 2% and the inhibition at 5 µM is 27%.
For the compound `CCCCCOCc1cc(=O)c2cc(C(F)(F)F)ccc2[nH]1` [Ref. 4, 2-(Pentyloxymethyl)-6-(trifluoromethyl)quinolin-4(1H)-one, reference compound], the “Reduction of Pyocyanin” value in the data set on P. aeruginosa PA14 [1] (compd. at 15 μM) was found to be 29%. The “Reduction of PQS” value in the data set with P. aeruginosa PA14 [2] is 21%. In addition, at PqsR, the inhibition at 0.05 µM is 29% and the inhibition at 5 µM came out at 100%.
Regarding `CCCCCCCc1[nH]c2ccncc2c(=O)c1C(=O)OCC` [Compound 5], on PqsR, the inhibition at 0.05 µM was determined as 24% and the inhibition at 5 µM was found to be 76%.
Turning to `CCCCCCCc1[nH]c2ccncc2c(=O)c1C(=O)O` [Compound 7, 2-heptyl-4-oxo-1,4-dihydro-1,6-naphthyridine-3-carboxylic acid], on PqsR, the inhibition at 0.05 µM came out at 6% and the inhibition at 5 µM is 20%.
As a reminder, the IC50 is the concentration that gives 50% inhibition. With `CCCCCCCc1[nH]c2ccccc2c(=O)c1C(=O)NO` [Compound 8], the “Biofilm formation / biovolume of the biofilms” value in the data set on P. aeruginosa PA14 [3] is “strongly inhibited; also recorded: markedly reduced”. In the data set on clinical isolate MHH9639, the “Biofilm formation / biovolume of the biofilms” value is listed as “strongly inhibited; also recorded: markedly reduced”. Also, the 50% inhibitory concentration (IC50) with P. aeruginosa PA14 [1] (Pseudomonas aeruginosa, PA14, read-out: IC50, production of the virulence factor pyocyanin) is ~12 µM. In addition, the “Reduction of Pyocyanin” value with P. aeruginosa PA14 [1] (determined at 12.5 μM) is reported as 51^e %. In addition, at PqsR, the inhibition at 0.05 µM turned out to be 15% and the inhibition at 5 µM was found to be 29%.
With `CCCCCCCc1[nH]c2ccc([N+](=O)[O-])cc2c(=O)c1C(=O)O` [Compound 12, 2-heptyl-6-nitro-4-oxo-1,4-dihydroquinoline-3-carboxylic acid], on PqsR, the inhibition at 0.05 µM came out at 11% and the inhibition at 5 µM stood at 34%.
For the compound `CCCCCCCc1[nH]c2ccc([N+](=O)[O-])cc2c(=O)c1CO` [Compound 1, 2-heptyl-3-(hydroxymethyl)-6-nitroquinolin-4(1H)-one], the “Reduction of Pyocyanin” value in the data set with P. aeruginosa PA14 [1] (compd. at 15 μM) worked out at 83%. The “Reduction of PQS” value in the data set on P. aeruginosa PA14 [2] is reported as 33%. Further, on PqsR, the inhibition at 0.05 µM was 45% and the inhibition at 5 µM came to 100%.
For `CCCCCCCc1cc(=O)c2cc(C(F)(F)F)ccc2n1C` [Ref. 1, 2-heptyl-1-methyl-6-(trifluoromethyl)quinolin-4(1H)-one, reference compound], in that order: 58%, 8.9%, 31% and 100%.
Take `COC(=O)c1ccccc1N` [methyl anthranilate]: the PQS formation result with P. aeruginosa PA14 [4] (at millimolar concentrations, ref. [12]) was “inhibit PQS formation”. For the same compound, the “Production of the virulence factor elastase” value in the data set on Pseudomonas aeruginosa [5] was “inhibit”.
With `CCCCCCCc1[nH]c2ccccc2c(=O)c1[N+](=O)[O-]` [Compound 9, 2-heptyl-3-nitroquinolin-4(1H)-one], on PqsR, the inhibition at 0.05 µM was determined as 14% and the inhibition at 5 µM amounted to 17%.
Turning to `Nc1cccc(F)c1C(=O)O` [Compound 6FABA], in the data set on Pseudomonas aeruginosa [6] (PqsA inhibitor, refs [14, 16, 22], read-out: IC50, production of signal molecules HHQ and PQS), the half-inhibitory concentration (IC50) was ~100 µM.
For the compound `CCCCCCCc1[nH]c2ccc([N+](=O)[O-])cc2c(=O)c1C(N)=O` [2-heptyl-6-nitro-4-oxo-1,4-dihydroquinoline-3-carboxamide], in the data set on P. aeruginosa biofilm, the “Inhibition of biofilm formation” value is recorded as “not being able to inhibit biofilm formation”. In the data set on P. aeruginosa PA14 [7], the IC50 is 2000 nM. For the same compound, the “Reduction of PQS production” value with P. aeruginosa PA14 [4] (at 15 μM, ref. [20]) is 37%. For the same compound, the “Reduction of HHQ production” value in the data set with Pseudomonas aeruginosa [6] (at 15 μM, ref. [20]) is recorded as 54%. The “Toxicity in animal model” value in the data set with P. aeruginosa infection [8] (in vivo) and in the data set on P. aeruginosa infection [9] (in vivo) was “no sign of toxicity” in each case. Besides, the “Protection of nematodes from lethal P. aeruginosa infection” value in the data set with P. aeruginosa infection [8] (ref. [20]) is given as “strong protection”. Further, the “Protection of larvae from lethal P. aeruginosa infection” value in the data set with P. aeruginosa infection [9] (at 22 nM corresponding to 7.3 ng g^−1 body weight, ref. [20]) was “full protection”.
On to `CCCCCCCc1cc(=O)c2cnccc2[nH]1` [Ref. 9, 2-Heptyl-1,6-naphthyridin-4(1H)-one, reference compound], for which, at PqsR, the inhibition at 0.05 µM amounted to 8% and the inhibition at 5 µM came to 2%.
For `CCCCCCCc1[nH]c2ccc([N+](=O)[O-])cc2c(=O)c1C(=O)OCC` [Compound 2, ethyl 2-heptyl-6-nitro-4-oxo-1,4-dihydroquinoline-3-carboxylate], in that order: -8% and 20%.
Regarding `CCCCCCCc1[nH]c2ccccc2c(=O)c1CO` [Compound 6], at PqsR, the inhibition at 0.05 µM was 5% and the inhibition at 5 µM was found to be 28%.

Values taken from US10472326B2, “PQSR modulators” (HELMHOLTZ-ZENTRUM FÜR INFEKTIONSFORSCHUNG GMBH, priority 2014, dated 2019).
